For 25 compounds, IC50 results are on record in patent US8796259B2, “N3-heteroaryl substituted triazoles and N5-heteroaryl substituted triazoles useful as axl inhibitors” (Rigel Pharmaceuticals, Inc., priority 2006, dated 2014).

The target of this test is T1, Axl (Homo sapiens, UniProt P30530).
T1 construct: endogenous in cells; host or cells: HeLa cells
T1 sequence (P30530 26-894): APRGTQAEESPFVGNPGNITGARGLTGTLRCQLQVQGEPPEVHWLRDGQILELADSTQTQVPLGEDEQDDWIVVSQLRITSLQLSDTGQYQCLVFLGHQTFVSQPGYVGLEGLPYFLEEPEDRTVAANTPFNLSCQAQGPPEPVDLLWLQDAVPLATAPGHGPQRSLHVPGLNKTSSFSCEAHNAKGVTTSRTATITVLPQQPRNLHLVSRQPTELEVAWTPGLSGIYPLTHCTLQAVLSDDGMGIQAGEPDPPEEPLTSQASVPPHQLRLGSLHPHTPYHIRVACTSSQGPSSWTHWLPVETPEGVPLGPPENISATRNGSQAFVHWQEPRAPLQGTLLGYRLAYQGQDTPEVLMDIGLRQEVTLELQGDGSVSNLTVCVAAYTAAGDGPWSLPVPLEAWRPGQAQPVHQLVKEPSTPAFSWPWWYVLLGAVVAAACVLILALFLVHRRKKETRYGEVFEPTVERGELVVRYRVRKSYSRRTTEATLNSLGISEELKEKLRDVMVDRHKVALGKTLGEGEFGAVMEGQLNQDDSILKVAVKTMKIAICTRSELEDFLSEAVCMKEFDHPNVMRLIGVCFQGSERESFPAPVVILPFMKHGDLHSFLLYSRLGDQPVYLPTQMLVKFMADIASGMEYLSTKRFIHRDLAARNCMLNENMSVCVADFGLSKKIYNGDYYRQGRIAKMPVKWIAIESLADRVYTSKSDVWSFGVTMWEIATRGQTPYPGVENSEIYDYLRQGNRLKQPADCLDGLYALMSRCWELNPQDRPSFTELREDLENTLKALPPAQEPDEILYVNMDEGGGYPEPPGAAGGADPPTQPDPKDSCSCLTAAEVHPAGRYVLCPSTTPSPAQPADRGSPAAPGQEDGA
Briefly: Phospho-Akt in-cell Western assay (inhibition of Axl activity, Axl-antibody cross-linking stimulation). The format is cell-based. The settings on record: Hela cells, phospho-Akt readout; compounds of formula (Ia), Table 1. An outline of the steps: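 HeLa cells on poly-L-lysine were starved 24 h in 0.5% FCS/DMEM with 500 ng/mL Axl/Fc, pre-treated with compound 1 h at 37 °C, then stimulated 5 min by cross-linked mouse anti-Axl/biotin anti-mouse antibody clusters. After formaldehyde fixation, phospho-Akt was detected by rabbit anti-phospho-Akt and HRP secondary with chemiluminescence read-out.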

For `Nc1nc(Nc2ccc(N3CCN(CC4CC4)CC3)nc2)nn1-c1ccc(C(F)(F)F)cn1` [compound 49, 1-(5-trifluoro-methylpyridin-2-yl)-N^3-(6-(4-cyclopropyl-methyl-piperazin-1-yl)pyridin-3-yl)-1H-1,2,4-triazole-3,5-diamine], the IC50 (in general, the concentration that inhibits the measured activity by half) was below 1000 nM.
With `Cc1cc(Nc2nc(N)n(-c3ncnc4ccc(F)cc34)n2)cnc1N1CCC(N2CCCC2)CC1` [compound 56, 1-(6-fluoro-quinazolin-4-yl)-N^3-(6-(4-(pyrrolidin-1-yl)piperidin-1-yl)-5-methylpyridin-3-yl)-1H-1,2,4-triazole-3,5-diamine], the IC50 was below 1000 nM.
For `Nc1nc(Nc2ccc3oc(CN4CCCC4)nc3c2)nn1-c1ncnc2ccc(Cl)cc12` [compound 2, 1-(6-chloro-quinazolin-4-yl)-N^3-(2-(pyrrolidin-1-ylmethyl)benzo [d]oxazol-5-yl)-1H-1,2,4-triazole-3,5-diamine] the value was 1000 to 10000 nM.
Under `Cc1csc2c(-n3nc(Nc4ccc(N5CCC(N6CCCCC6)CC5)nc4)nc3N)nc(Cl)nc12` [compound 28, 1-(2-chloro-7-methylthieno [3,2-d]pyrimidine-4-yl)-N^3-(6-(4-piperidin-1-ylpiperidin-1-yl)pyridine-3-yl)-1H-1,2,4-triazole-3,5-diamine] stands below 1000 nM.
For `COc1cc2ncnc(-n3nc(Nc4ccc5c(c4)OCCO5)nc3N)c2cc1OC` [compound 5, N^3-(2,3-dihydrobenzo [b][1,4]dioxin-6-yl)-1-(6,7-dimethoxy-quinazolin-4-yl)-1H-1,2,4-triazole-3,5-diamine] the value was below 1000 nM; for `CCN(CC)CC1CCCN1c1ccc(Nc2nc(N)n(-c3nc(Cl)nc4c(C)csc34)n2)cn1` (stereo not shown) [compound 38, 1-(2-chloro-7-methylthieno [3,2-d]pyrimidin-4-yl)-N^3-(6-(2-diethylamino-methyl-pyrrolidin-1-yl)pyridin-3-yl)-1H-1,2,4-triazole-3,5-diamine], below 1000 nM.
Compound `Cc1csc2c(-n3nc(Nc4ccc(N5CCN(CC6CC6)[C@@H](C)C5)nc4)nc3N)nc(Cl)nc12` [compound 117, 1-(2-chloro-7-methylthieno [3,2-d]pyrimidin-4-yl)-N^3-(2-(4-cyclopropyl-methyl-3-(S)-methyl-piperazin-1-yl)pyridin-5-yl)-1H-1,2,4-triazoie-3,5-diamine] displayed a 50% inhibitory concentration (IC50) below 1000 nM.
For `Cc1csc2c(-n3nc(Nc4cnc5c(c4)CN(CCN(C)C)CC5)nc3N)nc(Cl)nc12` [compound 50, 1-(2-chloro-7-methylthieno [3,2-d]pyrimidine-4-yl)-N^3-(6-(2-dimethyl-aminoethyl)-5,6,7,8-tetrahydro-1,6-naphthyridin-3-yl)-1H-1,2,4-triazole-3,5-diamine] the value was below 1000 nM; for `Cc1csc2c(-n3nc(Nc4ccc(N5CCC(N6CCCCCC6)CC5)nc4)nc3N)nc(Cl)nc12` [compound 35, 1-(2-chloro-7-methylthieno [3,2-d]pyrimidin-4-yl)-N^3-(6-(4-(azepan-1-yl)piperidin-1-yl)pyridin-3-yl)-1H-1,2,4-triazole-3,5-diamine], below 1000 nM.
Compound `COc1cc2ncnc(-n3nc(Nc4ccc(N5CCC(N6CCCC6)CC5)nc4)nc3N)c2cc1OC` [compound 23, 1-(6,7-dimethoxy-quinazoline-4-yl)-N^3-(6-(4-pyrrolidin-1-ylpiperidin-1-yl)pyridine-3-yl)-1H-1,2,4-triazole-3,5-diamine] showed an IC50 below 1000 nM.
Under `Cc1cc(Nc2nc(N)n(-c3nccc4occc34)n2)cnc1N1CCC(N2CCCC2)CC1` [compound 53, 1-(furo[3,2-c]pyridine-4-yl)-N^3-(6-(4-(pyrrolidin-1-yl)piperidin-1-yl)-5-methylpyridin-3-yl)-1H-1,2,4-triazole-3,5-diamine] stands below 1000 nM; under `Cc1csc2c(-n3nc(Nc4cnc5c(c4)CN(C4CCCC4)CC5)nc3N)ncnc12` [compound 97, 1-(7-methylthieno [3,2-d]pyrimidin-4-yl)-N^3-(6-cyclopentyl-5,6,7,8-tetrahydro-1,6-naphthyridin-3-yl)-1H-1,2,4-triazole-3,5-diamine], below 1000 nM.
As for `CCN(CC)C1CCN(c2ccc(Nc3nc(N)n(-c4ncnc5cc(OC)c(OC)cc45)n3)cn2)C1` (stereo not shown) [compound 45, 1-(6,7-dimethoxy-quinazoline-4-yl)-N^3-(6-(3-diethyl-amino-pyrrolidin-1-yl)pyridin-3-yl)-1H-1,2,4-triazole-3,5-diamine], the IC50 was below 1000 nM.
`COc1cc2ncnc(-n3nc(Nc4ccc(N5CCCN(C6CC7CCC6C7)CC5)nc4)nc3N)c2cc1OC` (stereo not shown) [compound 47, 1-(6,7-dimethoxy-quinazoline-4-yl)-N^3-(6-(4-(bicyclo [2.2.1]heptan-2-yl)-1,4-diazepan-1-yl)pyridin-3-yl)-1H-1,2,4-triazole-3,5-diamine] gave a half-inhibitory concentration (IC50) below 1000 nM.
Regarding `Cc1csc2c(-n3nc(Nc4cnc5[nH]ccc5c4)nc3N)nc(Cl)nc12` [compound 32, 1-(2-chloro-7-methylthieno [3,2-d]pyrimidin-4-yl)-N^3-(1H-pyrrolo[2,3-b]pyridin-5-yl)-1H-1,2,4-triazole-3,5-diamine], the IC50 is below 1000 nM.
Turning to `COc1cc2ncnc(-n3nc(Nc4ccc(C=CCN5CCCCC5)nc4)nc3N)c2cc1OC` [compound 80], the IC50 was below 1000 nM.
Under `Cc1csc2c(-n3nc(Nc4ccc(N5CCN(C6CC6)CC5)nc4)nc3N)nc(Cl)nc12` [compound 68, 1-(2-chloro-7-methylthieno [3,2-d]pyrimidin-4-yl)-N^3-(6-(4-cyclopropyl-piperazin-1-yl)pyridin-3-yl)-1H-1,2,4-triazole-3,5-diamine] stands below 1000 nM.
`COc1cc2ncnc(-n3nc(Nc4ccc(C=CCN5CCN(C(C)C)CC5)nc4)nc3N)c2cc1OC` [compound 113, 1-(6,7-dimethoxy-quinazoline-4-yl)-N^3-(2-(3-(4-isopropyl-piperazin-1-yl)propen-1-yl)pyridine-5-yl)-1H-1,2,4-triazole-3,5-diamine]: the IC50 was below 1000 nM.
For `Cc1cc(Nc2nc(N)n(-c3nc4ccccc4c4ccccc34)n2)cnc1N1CCC(N2CCCC2)CC1` [compound 43, 1-(phenanthridin-6-yl)-N^3-(6-(4-(pyrrolidin-1-yl)piperidin-1-yl)-5-methylpyridin-3-yl)-1H-1,2,4-triazole-3,5-diamine] the value was below 1000 nM.
Take `Cc1csc2c(-n3nc(Nc4ccc(N5CCN([C@H]6C[C@@H]7CC[C@H]6C7)CC5)nc4)nc3N)ncnc12` [compound 73, 1-(7-methylthieno [3,2-d]pyrimidine-4-yl)-N^3-(6-(4-((1S,2S,4R)-bicyclo[2.2.1]heptan-2-yl)piperazin-1-yl)pyridin-3-yl)-1H-1,2,4-triazole-3,5-diamine]: the 50% inhibitory concentration (IC50) was below 1000 nM.
`Cc1csc2c(-n3nc(Nc4cnc5c(c4)CC4(CC5)OCCO4)nc3N)nc(Cl)nc12` [compound 60, 1-(2-chloro-7-methylthieno [3,2-d]pyrimidin-4-yl)-N^3-(7′,8′-dihydro-5′H-spiro[[1,3]dioxolane-2,6′-quinoline]-3′-yl)-1H-1,2,4-triazole-3,5-diamine] gave a concentration for half-maximal inhibition (IC50) below 1000 nM.
For `Cc1cc(Nc2nc(N)n(-c3cc(-c4ccccc4)ncn3)n2)cnc1N1CCC(N2CCCC2)CC1` [compound 130, 1-(6-phenyl-pyrimidine-4-yl)-N^3-(3-methyl-2-(4-pyrrolidin-1-ylpiperidin-1-yl)pyridin-5-yl)-1H-1,2,4-triazole-3,5-diamine] the value was below 1000 nM; for `Cc1csc2c(-n3nc(Nc4ccc(C5CCN(C6CC7CCC6C7)CC5)nc4)nc3N)nc(Cl)nc12` (stereo not shown) [compound 83, 1-(2-chloro-7-methylthieno [3,2-d]pyrimidine-4-yl)-N^3-(6-(1-bicyclo[2.2.1]heptan-2-ylpiperidin-4-yl)pyridine-3-yl)-1H-1,2,4-triazole-3,5-diamine], below 1000 nM; for `Cc1csc2c(-n3nc(Nc4cnc5c(c4)CC(NC4CCN(C)CC4)CC5)nc3N)nc(Cl)nc12` (stereo not shown) [compound 51, 1-(2-chloro-7-methylthieno [3,2-d]pyrimidine-4-yl)-N^3-(6-(1-methyl-piperidin-4-ylamino)-5,6,7,8-tetrahydro-quinolin-3-yl)-1H-1,2,4-triazole-3,5-diamine], below 1000 nM.
Under `Cc1csc2c(-n3nc(Nc4cnc5c(c4)CCC(N4CCCC4)CC5)nc3N)ncnc12` (stereo not shown) [compound 105, 1-(7-methylthieno [3,2-d]pyrimidin-4-yl)-N^3-(7-(pyrrolidin-1-yl)-6,7,8,9-tetrahydro-5H-cyclohepta [b]pyridine-3-yl)-1H-1,2,4-triazole-3,5-diamine] stands below 1000 nM.
